Experiments:
[1] = molecular target: MMP-2 (72 kDa gelatinase) (Rattus norvegicus (Rat), UniProt P33436); experiment: Diabetic rat, plasma gelatinase by gelatin zymography (MMP-2); format: in vivo; details: diabetic rats, 100 mg/kg oral once/day, 7 days
MMP-2 [2] = experiment: Diabetic rat, MMP-2 in skin by ELISA; format: in vivo; details: both low and high doses, 3 weeks
Experimental: (§1) At the end of the treatment protocol, the rats were sacrificed, blood samples were collected, and whole skin (except over limbs) and qingiva were dissected (the skin, because of ample quantities of tissue were analyzed for each rat separately; the gingiva, because of the tiny amounts that could be harvested per rat, were pooled for each experimental group, as prescribed previously for tetracycline studies (30). In addition, the jaw bones were collected, defleshed, and bone loss around the teeth analyzed morphometrically as described previously (42, 43).

[3] = Type I diabetic rat model, 3-week oral treatment: blood glucose and hemoglobin A1c; format: in vivo; details: diabetic rats, 100 and 500 mg/kg oral daily, 3 weeks
Experimental: as §1

TNF-α = experiment: Inhibition of TNF-α production by LPS-stimulated monocytes; format: cell-based, human
Experimental: (§2) Briefly, human peripheral blood monocytes (HMs) were isolated from a leukocyte concentrate by density gradient centrifugation (Lymphoprep) and the isolated HMs cultured (2 h, 37° C.) to remove non-adherent cells. The adherent HMs wore cultured for 18 h (1×10^6 cells/well, 24-well plates)±endotoxin (LPS)±different compounds dissolved in DMSO (the final concentration of DMSO in the RPMI serum-free culture media with Pen./Strep. antibiotics was no greater than 0.5%). After incubation, the proinflammatory cytokines, TNFα, […], MCP-1 and IL-6 were measured in the conditioned media by ELISA and cytotoxicity was assessed by measuring the absorbance (490 nm) of formazan produced by reduction of MTS. The HMs alone±0.1-0.5% DMSO produced minimal levels of these pro-inflammatory cytokines. However, addition of 100 ng/ml or 10 μg/ml of LPS both dramatically stimulated cytokine production.
(§3) The cytokine levels were measured by Luminex multiplex, a method that allows the simultaneous measurement of different biological markers.

alveolar bone loss = experiment: Diabetic rat, alveolar bone loss, morphometric; format: in vivo; details: 500 mg/kg oral, 3 weeks
Experimental: as §1
Alveolar bone loss (the signature pathologic event in inflammatory periodontal disease) was assessed in the defleshed jaws of the compound 1-treated (TX) and untreated rats.

[4] = system: neonatal rat ventricular myocytes; experiment: Hydrogen peroxide induced LDH release; format: cell-based; details: 10 μM, H2O2 100 μM, 24 h
Experimental: Neonatal rat ventricular myocytes, serum starved for 24 h, were treated with the inhibitors 1 h prior to the addition of 100 μM of hydrogen peroxide (Sigma). LDH release in the conditioned media was quantified using CytoTox-ONE Homogeneous Membrane Integrity Assay reagent (Promega) at the indicated time points.

VEGF = VEGF level in LPS-challenged human monocytes, Luminex multiplex; format: cell-based; details: 2 μM, FIG. 2
Experimental: as §3

[5] = system: p38 MAP kinase activation; experiment: p38 MAP kinase activation, preliminary studies; format: cell-based
NFκB activation = NFκB activation in human monocytes in cell culture; format: cell-based; details: Monocyte
[6] = molecular target: MMP-9 (human leukocyte gelatinase) (Homo sapiens (Human), UniProt P14780); experiment: MMP-9 inhibition in vitro, octapeptide substrate, HPLC; format: biochemical; details: read-out: Maximum Inhibition At 100 μM compound (MMP-9)
Source text: In contrast all three chemically-modified curcumins at 100 μm final concentration inhibited gelatinase activity by 68-100% (FIG. 6 and Table 6).

IL-1β = experiment: Inhibition of IL-1β production by LPS-stimulated monocytes; format: cell-based; details: Homo sapiens, Monocyte, 18 h, read-out: % Inhibition of IL-1β produced by stimulated Monocytes with LPS @ 18 h
Experimental: as §2

MCP-1 = experiment: Inhibition of MCP-1 production by LPS-stimulated monocytes; format: cell-based, human
Experimental: as §2, §3

[7] = system: PC-3 human prostate cancer cells; experiment: MMP-9 in conditioned media of PC-3 cells, gelatin zymography and Western blot; format: cell-based; details: 10 μM and 20 μM, 48 hr, serum-free
Experimental: Compound 1 was evaluated in a cell culture model of cancer. […] After the incubation, aliquots of the conditioned media were assayed for MMP-9 (gelatinase B) by either of two techniques, gelatin zymography (in the presence of 2 or 10 mMCa^++) and Western blot (both assays used purified MMP-9, 92 kDa gelatinase, as a standard).

caspase-3 activity = experiment: Doxorubicin mediated caspase-3 activity; format: cell-based, rat; details: 10 μM, doxorubicin 500 nM, any time point
Experimental: Neonatal rat ventricular myocytes, serum starved for 24 h, were treated with the inhibitors 1 h prior to the addition of 500 nM of doxorubicin (Sigma). At the indicated time points cells were washed with ice-cold phosphate buffered saline and lysed using RIPA buffer (Pierce) containing protease and phosphatase inhibitors (Sigma). Caspase-3 activity in the cell lysates was measured by incubation with 7-amino-4-trifluoromethyl coumarin (Enzo).

[8] = molecular target: MMP-9 (92 kDa gelatinase) (Rattus norvegicus (Rat), UniProt P50282); experiment: Diabetic rat, plasma gelatinase by gelatin zymography (MMP-9); format: in vivo; details: diabetic rats, 100 mg/kg oral once/day, 7 days
[9] = Type I diabetic rat model, 1-week oral treatment: glucose, adverse events, serum level; format: in vivo; details: diabetic rats
Source text: The purpose of the following was to establish an in vivo model of excessive collagen degradation to be used to test efficacy of the compounds of the subject invention. Male Sprague-Dawley rats (typically 300-400 gms of body weight), specific viral antibody free, were ordered from Charles River. Following general anesthesia via isoflurane anesthetic inhalation, diabetes was induced by an I.V. administration of streptozotocin (STZ) (50*mg/kg body weight) (Sigma Chemical Co., St Louis, Mo., USA) diluted in 0.9% citrated saline (pH 4.5), after 12 hours of fasting. After the streptozotocin injection, the animals were given free access to water and food. […] In this test, the test-paper color changes to dark brown which indicates glycosuria.
The latter assays were carried out using Western blot analysis with monoclonal antibodies to MMP-8.

MMP-2 [10] = experiment: Diabetic rat, gingiva gelatinase by gelatin zymography (MMP-2); format: in vivo; details: diabetic rats, oral daily, 3 weeks
Experimental: as §1
This appearance of MMP-9 only in the gingiva (FIG. 10), but not the skin (FIG. 12), of the diabetic rats is likely the result of the oral bacteria inducing inflammation in the gingiva of these immune-suppressed UD rats, whereas the skin is not exposed to this onslaught of bacteria particularly the anaerobic gram-negative bacteria in the mouth that cause periodontal and gingival inflammation.

MMP-9 (human leukocyte gelatinase), sequence (P14780 94-707): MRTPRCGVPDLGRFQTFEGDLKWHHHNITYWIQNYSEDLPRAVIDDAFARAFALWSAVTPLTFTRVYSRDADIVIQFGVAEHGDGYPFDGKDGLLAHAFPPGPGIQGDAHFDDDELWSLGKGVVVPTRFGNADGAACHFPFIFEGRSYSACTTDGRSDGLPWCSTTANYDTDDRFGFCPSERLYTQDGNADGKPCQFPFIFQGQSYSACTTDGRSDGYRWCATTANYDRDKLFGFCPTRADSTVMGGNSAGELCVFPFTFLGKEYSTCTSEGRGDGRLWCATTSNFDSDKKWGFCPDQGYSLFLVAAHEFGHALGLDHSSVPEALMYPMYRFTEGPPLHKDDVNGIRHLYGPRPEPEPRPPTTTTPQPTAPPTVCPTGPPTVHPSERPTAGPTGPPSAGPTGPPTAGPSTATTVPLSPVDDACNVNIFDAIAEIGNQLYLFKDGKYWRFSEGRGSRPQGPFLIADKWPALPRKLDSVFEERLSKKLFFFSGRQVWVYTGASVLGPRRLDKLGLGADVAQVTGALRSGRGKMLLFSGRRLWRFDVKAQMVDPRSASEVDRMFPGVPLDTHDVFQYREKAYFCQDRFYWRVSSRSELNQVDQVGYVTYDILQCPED

SMILES: COC(=O)C(C(=O)/C=C/c1ccc(O)c(OC)c1)C(=O)/C=C/c1ccc(O)c(OC)c1 [Compound 1, 1,7-Bis(4-hydroxy-3-methoxyphenyl)-4-methoxycarbonylhepta-1E,6E-dien-3,5-dione]
- Plasma MMP-2 level [1]: reduced the excessive levels of MMPs to essentially normal levels
- Reduction of elevated MMP-2 level in skin (MMP-2 [2]): 28%
- Blood glucose [3]: no significant effect
- Hemoglobin A1c level [3]: no significant effect
- TNFα level in LPS-challenged human monocytes, Luminex multiplex (TNF-α; 2 μM, FIG. 2): potent in reducing
- inhibition at 2 µM (TNF-α; Homo sapiens, Monocyte, 18 h, 2 uM, read-out: % Inhibition of TNF-α produced by stimulated Monocytes with LPS @ 18 h): 63%
- inhibition at 25 µM (TNF-α; Homo sapiens, Monocyte, 18 h, 25 uM, read-out: % Inhibition of TNF-α produced by stimulated Monocytes with LPS @ 18 h): 100%
- inhibition at 50 µM (TNF-α; Homo sapiens, Monocyte, 18 h, 50 uM, read-out: % Inhibition of TNF-α produced by stimulated Monocytes with LPS @ 18 h): 100%
- Reduction in alveolar bone loss vs untreated groups (alveolar bone loss): less effective
- LDH release [4]: less dramatic effect
- VEGF level in LPS-challenged human monocytes, Luminex multiplex (VEGF): potent in reducing
- Effect on p38 MAP kinase activation [5]: little/no effect
- inhibition at 2 µM (NFκB activation; CRP/oxid-LDL Complex): 91%
- inhibition at 10 µM (NFκB activation; CRP/oxid-LDL Complex): 100%
- inhibition at 2 µM (NFκB activation; Endotoxin (LPS)): 24%
- inhibition at 10 µM (NFκB activation; Endotoxin (LPS)): 85%
- inhibition at 100 µM [6]: 72%
- inhibition at 2 µM (IL-1β; 2 uM): 41%
- inhibition at 25 µM (IL-1β; 25 uM): 100%
- inhibition at 50 µM (IL-1β; 50 uM): 100%
- MCP-1 level in LPS-challenged human monocytes, Luminex multiplex (MCP-1; 2 μM, FIG. 2): potent in reducing
- inhibition at 2 µM (MCP-1; Homo sapiens, Monocyte, 18 h, 2 uM, read-out: % Inhibition of MCP-1 produced by stimulated Monocytes with LPS @ 18 h): 74%
- inhibition at 25 µM (MCP-1; Homo sapiens, Monocyte, 18 h, 25 uM, read-out: % Inhibition of MCP-1 produced by stimulated Monocytes with LPS @ 18 h): 78%
- inhibition at 50 µM (MCP-1; Homo sapiens, Monocyte, 18 h, 50 uM, read-out: % Inhibition of MCP-1 produced by stimulated Monocytes with LPS @ 18 h): 79%
- MMP-9 production and/or activity in conditioned media [7]: inhibited the production and/or activity of MMP-9
- Effect on doxorubicin mediated caspase-3 activity (caspase-3 activity): None of the MMP inhibitors, including compound 1, negatively modulate caspase-3 activity
- Plasma MMP-9 level [8]: reduced the excessive levels of MMPs to essentially normal levels
- Severity of hyperglycemia (serum glucose) ([9]; 100 mg/kg oral once/day, 7 days): no effect on the severity of hyperglycemia
- Description of AEs ([9]; n = 6, 1 week oral treatment): Minor inflamed
- Incidence of Adverse Events (AEs) ([9]; n = 6, 1 week oral treatment): 1/6
- concentration at 7 days ([9]; male, Sprague-Dawley, rat, serum, 100 mg/kg, 1 week oral treatment, FIG. 7): ~100 ng/mL
- Pro- and activated-forms of MMP-2 in gingiva (MMP-2 [10]): neither diabetes nor compound 1 appeared to have a detectable effect

— patent publication US10669227B2 (THE RESEARCH FOUNDATION OF STATE UNIVERSITY OF NEW YORK, priority 2009, dated 2020)
